Experiments:
[1] = Partition coefficient (logD2.0); type: physicochemical; conditions: octanol/water
[2] = log (1/C') was determined; type: ADME
Rattus norvegicus [3] = organism: Rattus norvegicus; test: Concentration of the drug in the kidney of rat; type: ADME, organism-based; conditions: in vivo
Rattus norvegicus [4] = organism: Rattus norvegicus; test: Concentration of the drug in the liver of rat; type: ADME, organism-based; conditions: in vivo
Culicidae = test: Concentration required to kill 50% of the mosquito larva in 24 hr.; type: organism-based; conditions: in vivo

SMILES | logD ([1]; pH 2, read-out: logD) | Log 1/C [2] | Log M (Rattus norvegicus [3]) | Log M (Rattus norvegicus [4]) | also measured
CCc1ccc(C(=O)O)cc1 | 2.89 | – | – | – | –
O=C(O)c1ccc(I)cc1 | – | 0.99 | – | – | Log LD50: -2.31; logD [1]: 3.05
N#Cc1ccc(C(=O)O)cc1 | 1.63 | – | 1.57 | 0.62 | –
CN(C)c1cccc(C(=O)O)c1 | 0.22 | – | 0.45 | 0.2 | –
CN(C)c1ccc(C(=O)O)cc1 | 1.28 | – | 0.08 | 0.17 | –
CCCOc1ccc(C(=O)O)cc1 | 3.09 | – | – | – | –
O=C(O)c1ccccc1I | 2.45 | 1.19 | – | – | –
O=Cc1ccc(C(=O)O)cc1 | 1.76 | – | – | – | –
O=C(O)c1ccccc1F | 1.52 | 1.82 | – | – | –
O=C(O)c1ccccc1[N+](=O)[O-] | 1.2 | 1.54 | – | – | –
O=C(O)c1c(Cl)cccc1Cl | 1.8 | – | – | – | Log LD50: -1.22
[N-]=[N+]=Nc1ccc(C(=O)O)cc1 | 2.54 | – | – | – | –
O=C(O)c1ccccc1Cl | – | 2.15 | – | – | logD [1]: 2.02; Log LD50 (Culicidae): -1.62
O=C(O)c1ccccc1Br | 2.14 | 1.9 | – | – | –
CC(=O)Nc1cccc(C(=O)O)c1 | 1.32 | – | -0.1 | -0.29 | –
CCCCc1ccc(C(=O)O)cc1 | 3.63 | – | – | – | –
CC(C)c1ccc(C(=O)O)cc1 | 3.28 | – | – | – | –
CCCc1ccc(C(=O)O)cc1 | 3.42 | – | – | – | –
O=C(O)c1cccc(Cl)c1 | – | 2.16 | 1.79 | 1.57 | Log LD50: -2; logD [1]: 2.72
O=C(O)c1ccc(Cl)c(Cl)c1 | – | 2.47 | – | – | Log LD50: -2.28; logD [1]: 3.25
O=C(O)c1ccc(Br)cc1 | – | 1.19 | – | – | Log LD50: -2.03; logD [1]: 2.81
COc1cccc(C(=O)O)c1 | 1.98 | 0.29 | 1.35 | 1.34 | –
O=C(O)c1cccc([N+](=O)[O-])c1 | – | 0.22 | 1.23 | 0.73 | logD [1]: 1.69
O=C(O)c1ccc(F)cc1 | 2.05 | 1.27 | – | – | Log LD50: -1.85

SMILES | logD ([1]; pH 2, read-out: logD) | Log 1/C [2] | Log M (Rattus norvegicus [3]) | Log M (Rattus norvegicus [4]) | also measured
CCOc1ccc(C(=O)O)cc1 | – | – | 0.89 | 0.92 | –
O=C(O)c1cc(Cl)ccc1Cl | 2.82 | 1.63 | – | – | Log LD50: -1.77
O=C(O)c1ccc(C(F)(F)F)cc1 | 3.18 | – | – | – | –
Nc1ccc(C(=O)O)cc1 | 0.76 | -1.67 | 0.79 | 0.59 | Log LD50: -1.54
O=C(O)c1cccc(Br)c1 | – | 1.71 | – | – | logD [1]: 2.86
N#Cc1cccc(C(=O)O)c1 | 1.65 | – | 0.95 | 0.69 | –
O=C(O)c1cccc(C(F)(F)F)c1 | 2.99 | – | – | – | –
Cc1cccc(C(=O)O)c1 | – | – | 1.83 | 1.71 | –
O=C(O)c1cccc(I)c1 | – | 1.29 | – | – | logD [1]: 3.13
O=C(O)c1cc(I)cc(I)c1I [2,3,5-TRIIODOBENZOIC ACID] | 3.45 | – | – | – | –
Nc1cccc(C(=O)O)c1 [3-AMINOBENZOIC ACID] | -0.79 | -1 | 1.45 | 0.76 | –
O=C(O)c1cccc(O)c1 [3-HYDROXYBENZOIC ACID] | – | -0.99 | – | – | logD [1]: 1.55
Cc1ccc(C(=O)O)cc1 [4-METHYLBENZOIC ACID] | – | – | – | – | logD [1]: 2.26
O=C(O)c1ccc([N+](=O)[O-])cc1 [4-NITROBENZOIC ACID] | – | – | 1.02 | 0.79 | Log LD50: -1.52; logD [1]: 1.84
CC(=O)Nc1ccc(C(=O)O)cc1 [ACEDOBEN] | 1.27 | – | -0.64 | -0.08 | –
NCc1ccc(C(=O)O)cc1 [AMINOMETHYLBENZOIC ACID] | 1.03 | – | – | – | –
Nc1ccccc1C(=O)O [ANTHRANILIC ACID] | 0.51 | – | – | – | –
O=C(O)c1ccccc1 [BENZOIC ACID] | – | – | 1.44 | 1.28 | –
O=C(O)c1ccc2ccccc2c1 [BETA-NAPHTOIC ACID] | 2.78 | – | – | – | Log LD50: -1.92
NS(=O)(=O)c1ccc(C(=O)O)cc1 [CARZENIDE] | 0.55 | – | – | – | –
O=C(O)c1cccc2ccccc12 [NAPHTHOIC ACID] | 2.98 | – | – | – | Log LD50: -1.46
O=C(O)c1ccc(O)cc1 [PARABEN] | 1.41 | -1.69 | – | – | Log LD50: -1.29
Cc1ccccc1C(=O)O [TOLUIC ACID] | 2.27 | – | – | – | –
COc1ccc(C(=O)O)cc1 [p-ANISIC ACID] | 1.95 | -0.66 | 1 | 1.09 | Log LD50: -1.6

Source: ChEMBL document CHEMBL1126253, “Energy aspects of oil/water partition leading to the novel hydrophobic parameters for the analysis of quantitative structure-activity relationships” (J Med Chem, 1992)
